Like-named read-outs stand apart in the source and are kept apart here. Marks after values point to notes of the source that are not given here.
Legend:
female obese Zucker rats = assay: Serum lipid and glycemic control variables in chow-fed obese female Zucker rats, daily oral gavage for two weeks; format: in vivo, rat; details: for change in vivo at 100 mg/kg: Rattus norvegicus, Table 9; for Glucose / HDL-C / NEFA / Non-HDL-C / TG / Insulin: serum, mean ± SEM; for Insulin: Tables 10, 11
How it was run: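 Female obese Zucker fa rats, 10–12 wk, 400–500 g, chow-fed, dosed daily by oral gavage for 14 days in CMC/Tween 20 or ethanol/PEG-200 vehicle. After a 6-h fast, serum was sampled pre-dose, day 7 and day 14. Triglycerides, total cholesterol, NEFA and β-hydroxybutyrate were measured, plus lipoprotein cholesterol by gel-filtration profiling.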

Which melting point does the source give for `CC(C)(CCCCC(=O)CCCCC(C)(C)C(=O)O)C(=O)O` [Compound 210c, 7-Oxo-2,2,12,12-tetramethyltridecanedioic acid] here?
The melting point was 60 to 61.5 °C.

What about the “Insulin, percent increase (+) or decrease (−) of the pretreatment control value” (female obese Zucker rats; 10 mg/kg daily oral, 1 wk) of the same molecule?
The value was “(−27) percent”.

And the “Non-HDL-C, percent increase (+) or decrease (−) of the pretreatment control value” (female obese Zucker rats; 10 mg/kg daily oral, 1 wk)?
The value was “(−35) percent”.

What about the “HDL-C, percent increase (+) or decrease (−) of the pretreatment control value” (female obese Zucker rats; 30 mg/kg daily oral, 1 wk) of the same molecule?
The value was “(+156) percent”.

What about the “NEFA, percent increase (+) or decrease (−) of the pretreatment control value” (“NEFA, percent increase (+) or decrease” below) (female obese Zucker rats; 30 mg/kg daily oral, 1 wk) of the same molecule?
The value was “(−29) percent”.

What about the “Non-HDL-C, percent increase (+) or decrease (−) of the pretreatment control value” (female obese Zucker rats; 30 mg/kg daily oral, 1 wk) of the same molecule?
The value was “(−23) percent”.

What about the “TG, percent increase (+) or decrease (−) of the pretreatment control value” (from here on “TG, percent increase (+) or decrease (−)”) (female obese Zucker rats; 30 mg/kg daily oral, 1 wk) of the same molecule?
Its value is “(−33) percent”.

And the “HDL-C, percent increase (+) or decrease (−) of the pretreatment control value” (female obese Zucker rats; 30 mg/kg daily oral, 2 wk)?
Its value is “(+147) percent”.

And the “HDL-C, percent increase (+) or decrease (−) of the pretreatment control value” (female obese Zucker rats; 100 mg/kg daily oral, 1 wk)?
Its value is “(+174) percent”.

What about the “NEFA, percent increase (+) or decrease” value (female obese Zucker rats; 100 mg/kg daily oral, 1 wk) of the same molecule?
Its value is “(−33) percent”.

What about the “Non-HDL-C, percent increase (+) or decrease (−) of the pretreatment control value” (female obese Zucker rats; 100 mg/kg daily oral, 1 wk) of the same molecule?
The value was “(−42) percent”.

And the “TG, percent increase (+) or decrease (−)” value (female obese Zucker rats; 100 mg/kg daily oral, 1 wk)?
The value was “(−60) percent”.

What about the “HDL-C, percent increase (+) or decrease (−) of the pretreatment control value” (female obese Zucker rats; 100 mg/kg daily oral, 2 wk) of the same molecule?
The value was “(+179) percent”.

What about the “NEFA, percent increase (+) or decrease” value (female obese Zucker rats; 100 mg/kg daily oral, 2 wk) of the same molecule?
The value was “(−45) percent”.

What about the “Non-HDL-C, percent increase (+) or decrease (−) of the pretreatment control value” (female obese Zucker rats; 100 mg/kg daily oral, 2 wk) of the same molecule?
The value was “(−29) percent”.

And the “TG, percent increase (+) or decrease (−)” value (female obese Zucker rats; 100 mg/kg daily oral, 2 wk)?
Its value is “(−54) percent”.

And the change in vivo at 100 mg/kg (female obese Zucker rats; 168 h, 100 mg/kg daily oral, 1 wk, read-out: HDL-Cholesterol, Percent Change from Pre-Treatment)?
Its change in vivo at 100 mg/kg is 54%.

And the change in vivo at 100 mg/kg (female obese Zucker rats; 168 h, 100 mg/kg daily oral, 1 wk, read-out: NonHDL-Cholesterol, Percent Change from Pre-Treatment)?
The change in vivo at 100 mg/kg was -62%.

And the change in vivo at 100 mg/kg (female obese Zucker rats; 168 h, 100 mg/kg daily oral, 1 wk, read-out: TG, Percent Change from Pre-Treatment)?
The change in vivo at 100 mg/kg was -74%.

What about the change in vivo at 100 mg/kg (female obese Zucker rats; 336 h, 100 mg/kg daily oral, 2 wk, read-out: HDL-Cholesterol, Percent Change from Pre-Treatment) of the same molecule?
Its change in vivo at 100 mg/kg is 78%.

What about the change in vivo at 100 mg/kg (female obese Zucker rats; 336 h, 100 mg/kg daily oral, 2 wk, read-out: NonHDL-Cholesterol, Percent Change from Pre-Treatment) of the same molecule?
Its change in vivo at 100 mg/kg is -41%.

What about the change in vivo at 100 mg/kg (female obese Zucker rats; 336 h, 100 mg/kg daily oral, 2 wk, read-out: TG, Percent Change from Pre-Treatment) of the same molecule?
Its change in vivo at 100 mg/kg is -69%.

What about the Glucose (female obese Zucker rats; 3 mg/kg daily oral, 1 wk) of the same molecule?
The Glucose was 99 ± 4 mg/dL.

And the HDL-C (female obese Zucker rats; 3 mg/kg daily oral, 1 wk)?
Its HDL-C is 36 ± 1 mg/dL.

And the NEFA (female obese Zucker rats; 3 mg/kg daily oral, 1 wk)?
Its NEFA is 1.2 ± 0.16 mg/dL.

And the Non-HDL-C (female obese Zucker rats; 3 mg/kg daily oral, 1 wk)?
The Non-HDL-C was 24 ± 2 mg/dL.

What about the TG (female obese Zucker rats; 3 mg/kg daily oral, 1 wk) of the same molecule?
Its TG is 775 ± 92 mg/dL.

And the Insulin (female obese Zucker rats; 3 mg/kg daily oral, 1 wk)?
The Insulin was 10.7 ± 0.8 ng/dL.

What about the Glucose (female obese Zucker rats; 3 mg/kg daily oral, 2 wk) of the same molecule?
The Glucose was 103 ± 3 mg/dL.

What about the HDL-C (female obese Zucker rats; 3 mg/kg daily oral, 2 wk) of the same molecule?
The HDL-C was 33 ± 1 mg/dL.

And the NEFA (female obese Zucker rats; 3 mg/kg daily oral, 2 wk)?
The NEFA was 1.5 ± 0.27 mg/dL.

And the Non-HDL-C (female obese Zucker rats; 3 mg/kg daily oral, 2 wk)?
Its Non-HDL-C is 24 ± 3 mg/dL.

And the TG (female obese Zucker rats; 3 mg/kg daily oral, 2 wk)?
Its TG is 857 ± 103 mg/dL.

What about the Insulin (female obese Zucker rats; 3 mg/kg daily oral, 2 wk) of the same molecule?
Its Insulin is 8.6 ± 0.5 ng/dL.

And the Glucose (female obese Zucker rats; 10 mg/kg daily oral, 1 wk)?
Its Glucose is 105 ± 3 mg/dL.

What about the HDL-C (female obese Zucker rats; 10 mg/kg daily oral, 1 wk) of the same molecule?
Its HDL-C is 47 ± 7 mg/dL.

What about the NEFA (female obese Zucker rats; 10 mg/kg daily oral, 1 wk) of the same molecule?
Its NEFA is 0.92 ± 0.09.

And the Non-HDL-C (female obese Zucker rats; 10 mg/kg daily oral, 1 wk)?
Its Non-HDL-C is 26 ± 4^a mg/dl.

What about the TG (female obese Zucker rats; 10 mg/kg daily oral, 1 wk) of the same molecule?
The TG was 692 ± 180 mg/dL.

And the Insulin (female obese Zucker rats; 10 mg/kg daily oral, 1 wk)?
The Insulin was 7.7 ± 1.0^a ng/dl.

And the Glucose (female obese Zucker rats; 10 mg/kg daily oral, 2 wk)?
The Glucose was 113 ± 3 mg/dL.

And the HDL-C (female obese Zucker rats; 10 mg/kg daily oral, 2 wk)?
The HDL-C was 39 ± 5 mg/dL.

What about the NEFA (female obese Zucker rats; 10 mg/kg daily oral, 2 wk) of the same molecule?
Its NEFA is 1.5 ± 0.28 mg/dL.

What about the Non-HDL-C (female obese Zucker rats; 10 mg/kg daily oral, 2 wk) of the same molecule?
The Non-HDL-C was 27 ± 4 mg/dL.

And the TG (female obese Zucker rats; 10 mg/kg daily oral, 2 wk)?
The TG was 814 ± 205 mg/dL.

What about the Insulin (female obese Zucker rats; 10 mg/kg daily oral, 2 wk) of the same molecule?
Its Insulin is 8.9 ± 1.3 ng/dL.

And the Glucose (female obese Zucker rats; 30 mg/kg daily oral, 1 wk)?
Its Glucose is 115 ± 4 mg/dL.

What about the HDL-C (female obese Zucker rats; 30 mg/kg daily oral, 1 wk) of the same molecule?
The HDL-C was 53 ± 8^a mg/dl.

What about the NEFA (female obese Zucker rats; 30 mg/kg daily oral, 1 wk) of the same molecule?
The NEFA was 1.0 ± 0.11.

And the Non-HDL-C (female obese Zucker rats; 30 mg/kg daily oral, 1 wk)?
The Non-HDL-C was 37 ± 4^a mg/dl.

And the TG (female obese Zucker rats; 30 mg/kg daily oral, 1 wk)?
The TG was 826 ± 92^a mg/dl.

And the Insulin (female obese Zucker rats; 30 mg/kg daily oral, 1 wk)?
The Insulin was 9.2 ± 1.3 ng/dL.

What about the Glucose (female obese Zucker rats; 30 mg/kg daily oral, 2 wk) of the same molecule?
The Glucose was 118 ± 8 mg/dL.

And the HDL-C (female obese Zucker rats; 30 mg/kg daily oral, 2 wk)?
Its HDL-C is 50 ± 9^a mg/dl.

And the NEFA (female obese Zucker rats; 30 mg/kg daily oral, 2 wk)?
Its NEFA is 1.1 ± 0.20 mg/dL.

And the Non-HDL-C (female obese Zucker rats; 30 mg/kg daily oral, 2 wk)?
The Non-HDL-C was 43 ± 5 mg/dL.

What about the TG (female obese Zucker rats; 30 mg/kg daily oral, 2 wk) of the same molecule?
Its TG is 962 ± 118 mg/dL.

What about the Insulin (female obese Zucker rats; 30 mg/kg daily oral, 2 wk) of the same molecule?
The Insulin was 8.5 ± 1.8 ng/dL.

And the Glucose (female obese Zucker rats; 100 mg/kg daily oral, 1 wk)?
Its Glucose is 113 ± 6 mg/dL.

And the HDL-C (female obese Zucker rats; 100 mg/kg daily oral, 1 wk)?
Its HDL-C is 66 ± 9^a mg/dl.

What about the NEFA (female obese Zucker rats; 100 mg/kg daily oral, 1 wk) of the same molecule?
Its NEFA is 0.81 ± 0.07.

And the Non-HDL-C (female obese Zucker rats; 100 mg/kg daily oral, 1 wk)?
Its Non-HDL-C is 18 ± 3^a mg/dl.

What about the TG (female obese Zucker rats; 100 mg/kg daily oral, 1 wk) of the same molecule?
Its TG is 383 ± 49^a mg/dl.

What about the Insulin (female obese Zucker rats; 100 mg/kg daily oral, 1 wk) of the same molecule?
The Insulin was 9.0 ± 1.0 ng/dL.

What about the Glucose (female obese Zucker rats; 100 mg/kg daily oral, 2 wk) of the same molecule?
The Glucose was 122 ± 7 mg/dL.

And the HDL-C (female obese Zucker rats; 100 mg/kg daily oral, 2 wk)?
The HDL-C was 68 ± 10^a mg/dl.

What about the NEFA (female obese Zucker rats; 100 mg/kg daily oral, 2 wk) of the same molecule?
The NEFA was 0.66 ± 0.06.

What about the Non-HDL-C (female obese Zucker rats; 100 mg/kg daily oral, 2 wk) of the same molecule?
Its Non-HDL-C is 22 ± 3^a mg/dl.

What about the TG (female obese Zucker rats; 100 mg/kg daily oral, 2 wk) of the same molecule?
The TG was 440 ± 58^a mg/dl.

And the Insulin (female obese Zucker rats; 100 mg/kg daily oral, 2 wk)?
The Insulin was 9.5 ± 0.9 ng/dL.

Reference: US7304093B2, “Ketone compounds and compositions for cholesterol management and related uses” (Esperion Therapeutics, Inc., priority 2000, dated 2007)
